From US20260108455A1, “DEVICE FOR SUSTAINED CONTROLLED RELEASE OF A […] ACTIVE SUBSTANCE AND USES THEREOF” (Hylomorph AG, priority 2022, published 2026) come the findings set out here.

Structures can show the parent of a compound that is named as a salt.

Series [1] in a line: Drug elution testing (in vitro release) of PLGA films. Type of series: physicochemical. The note with it: all prototypes, phase 2. An excerpt: The main goals are summarized below: • 1. Prepare placebo films with multiple grades of PLGA polymers (Table 1) using solvent casting method. Evaluate both single and dual layer film designs. • 2. […] Create HPLC assay and drug elution method based on provided information. Optimize method for use in formulation development.

The nature of series [2]: Solubility in water (distilled and deionized water). Conditions: 20 °C, pH 7, water, neutral pH, i.e. pH of 7 at room temperature. Type of series: physicochemical. As to the method:
Solubility is a chemical property of a molecule in a specific solvent which depends on the chemistry of the two and on the environmental conditions of temperature and pH. […] This at room temperature (20 deg) or body temperature (37 deg) and a pH of 7. Solubility is measured in distilled and deionized water and is given in mg/mL.

As for `CN(C)c1ccc(O)c2c1C[C@H]1C[C@H]3[C@H](N(C)C)C(O)=C(C(N)=O)C(=O)[C@@]3(O)C(O)=C1C2=O` [Minocycline HCl, Minocycline Hydrochloride], in series [1], the “degradation during elution testing” value is given as “Significant degradation”.

In series [2], `CO[C@H]1/C=C/O[C@@]2(C)Oc3c(C)c(O)c4c(O)c(c(/C=N/N5CCN(C)CC5)c(O)c4c3C2=O)NC(=O)/C(C)=C\C=C\[C@H](C)[C@H](O)[C@@H](C)[C@@H](O)[C@@H](C)[C@H](OC(C)=O)[C@@H]1C` [Rifampicin] came in with a solubility of at most 2500 µg/mL.

By solubility is commonly meant the dissolved amount per volume that the medium holds. Lower therefore signals little dissolved substance.
